Here are results for two compounds from US20240343906A1, “POLOXAMER-STABILIZED REAGENTS” (Promega Corporation, priority 2023, published 2024).

Data set [1] in a line: Solubility analysis: clarity by optical density at 850 nm (OD850) after reconstitution. The conditions noted are these: lyophilized, reconstituted in DPBS pH 7.0, 1 mM. It is filed as physicochemical. On the procedure:
FIG. 4. Solubility of dye-chloroalkyl ligand conjugates following lyophilization in the presence of various excipients and reconstitution in DPBS pH 7.0.
Vials of lyophilized Chloroalkyl-JANELIA FLUOR 552 (CA-JF 552) and Chloroalkyl-JANELIA FLUOR 669 (CA-JF 669) formulated prior to lyophilization with various excipients were separately dissolved in 100 μL aqueous buffer to a final 1 mM concentration. 70 μl of the CA-JF 552 and CA-JF 669 solutions were then transferred to wells of a transparent 96-well plate for clarity analysis using Optical Density absorbance measurements at 850 nm [Bandwidth 3.5 nm] (OD850) on Tecan Spark plate reader (FIGS. 4 and 5). Target absorbance limit for clarity measurements was determined using a known turbidity sample of material similarly formulated with poloxamer to assess solubility of the ligand.
A clarity target of <0.1 was utilized.

Data set [2] can be described thus: Reconstitution of lyophilized P-407 formulated cakes in 100 μL DPBS (visual appearance). The class given is physicochemical. The conditions noted are these: 100 nmols ligand, 100 μL DPBS (JF-552: after 4 h). On the procedure: The 1 μmol JF Dye HaloTag Ligand (JF-669 or JF-552) was dissolved in ca. 3.5 mL EtOH, followed by transferring the resulting solution to the melted P-407. The resulting mixture was rotated at ca. 65° C. to afford a homogeneous solution. […]

On to `C[Si]1(C)C2=CC(=[N+]3CCC3)C=CC2=C(c2c(F)c(C(=O)NCCOCCOCCCCCCCl)c(F)c(F)c2C(=O)[O-])c2ccc(N3CCC3)cc21` [JF-669, Chloroalkyl-JANELIA FLUOR 669], for which the “clarity (OD850) versus clarity target <0.1” value in data set [1] (excipient cyclodextrin) and in data set [1] (excipient pullulan) was “unable to hit clarity target” in each case. In addition, the appearance after reconstitution result in data set [2] (3-mg-P407 formulation) is on record as “hazy suspension”; in data set [2] (9-mg-P407 formulation) it was “clear solution”.
With Chloroalkyl-JANELIA FLUOR 552 [JF-552], the “clarity (OD850) versus clarity target <0.1” value in data set [1] (excipient cyclodextrin) and in data set [1] (excipient pullulan) was “unable to hit clarity target” each time. Further, the appearance after reconstitution result in data set [2] (3-mg-P407 formulation) is “hazy suspension”; in data set [2] (9-mg-P407 formulation) it was “clear solution”.
